Data taken from patent US5229381A, “Substituted azetidinones as anti-inflammatory and antidegenerative agents” (Merck & Co., Inc., priority 1991, dated 1993).

The molecules below were run against T1, human polymorphonuclear leukocyte elastase (Homo sapiens, UniProt P08246) (assay: Inhibition of human polymorphonuclear leukocyte (granulocyte) elastase via hydrolysis of Boc-AAPAN or Boc-AAPVN). Conditions: Table I; 2 min after time zero; crude PMN extract, pH 7.5.
T1 construct: Crude extract of human polymorphonuclear leukocytes (PMN) containing elastase activity; endogenous in cells; host or cells: human polymorphonuclear leukocytes (crude extract)
T1 sequence (P08246 30-247 limits assumed): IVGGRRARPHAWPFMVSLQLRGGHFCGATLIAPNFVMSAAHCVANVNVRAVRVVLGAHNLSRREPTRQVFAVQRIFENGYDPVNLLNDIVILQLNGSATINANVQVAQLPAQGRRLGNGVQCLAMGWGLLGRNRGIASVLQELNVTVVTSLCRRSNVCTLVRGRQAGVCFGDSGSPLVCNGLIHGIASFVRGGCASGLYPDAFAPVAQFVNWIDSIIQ
Type: biochemical
Experimental: Enzyme Assays for the Inhibition of Human Polymorphonuclear Leukocyte Elastase Via Hydrolysis of N-t-Boc-alanyl-alanyl-prolylalanine-p-nitroanilide (Boc-AAPAN) or N-t-Boc-alanyl-prolylvaline-p-nitroanilide (Boc-AAPVN) Reagent:
0.05M TES (N-tris[hydroxymethyl]methyl-2-amino-ethanesulfonic acid) Buffer, pH 7.5.
0.2 mM Boc-AAPAN or Boc-AAPVN.
To prepare substrate, the solid was first dissolved in 10.0 ml DMSO. Buffer at pH 7.5 was then added to a final volume of 100 ml.
Crude extract of human polymorphonuclear leukocytes (PMN) containing elastase activity.
Inhibitors (azetidinones) to be tested dissolved in DMSO just before use.
To 1.0 ml of 0.2 mM Boc-AAPAN in a cuvette, 0.01-0.1 ml of DMSO with or without inhibitor was added. After mixing, a measurement was taken at 410 mμ to detect any spontaneous hydrolysis due to presence of test compound. 0.05 Milliliters of PMN extract was then added and the ΔOD/min at 410 mμ was measured and recorded. Beckman model 35 spectrophotometer was used.
Results were also expressed as Ki, the micromolar concentration of the inhibitor (μM) giving 50% of the control enzyme activity; or as ^k obs/I which is the second order rate constant in per mole per second for inactivation of the enzyme.
The elastase activity in the crude PMN extract may vary from one preparation to another. A control of each new batch is run, and the volume added in the assay procedure is adjusted according to activity.

SMILES | ID50, effective dosage for 50% inhibition of the enzyme activity two minutes after time zero [µg/mL]
COC1C(=O)N(C(C)=O)C1C(=O)OCc1ccccc1 (centres unmarked) [Table I: H; CH3 O; COOCH2 C6 H5; COCH3] | 2000
CCCC1C(=O)N(C(C)=O)C1OC(C)=O (centres unmarked) [Table I: H; n-propyl; OCOCH3; COCH3, 1-acetyl-4-acetoxy-3-n-propylazetidin-2-one] | 10

Same assay, conditions: Table I; read-out: Ki, concentration of the inhibitor giving 50% of the control enzyme activity

SMILES | Ki [µM]
CC[C@H]1C(=O)N(S(=O)(=O)c2ccc(C)cc2)[C@H]1C(=O)OCc1ccc(C(=O)O)cc1 (relative stereo) | 4.2
CC[C@H]1C(=O)N(C(C)=O)[C@@H]1OC(=O)c1ccccc1 (relative stereo) [Table I: H; C2 H5 (trans); OCOPh; COCH3] | 0.19
CC[C@H]1C(=O)N(S(=O)(=O)c2ccc(C)cc2)[C@H]1C(=O)N1CCCC1 (relative stereo) | 27.7
CC[C@H]1C(=O)N(C(C)=O)[C@H]1OC(=O)c1ccccc1 (relative stereo) [Table I: H; C2 H5 (cis); OCOPh; COCH3] | 0.21
CC[C@H]1C(=O)N(S(=O)(=O)c2ccc(C)cc2)[C@H]1C(=O)N(C)CC(=O)O (relative stereo) | 22
CCO[C@@H]1[C@@H](CC)C(=O)N1C(C)=O (relative stereo) [Table I: H; C2 H5 (trans); OC2 H5; COCH3] | 11.9
CC[C@H]1C(=O)N(C(C)=O)[C@@H]1Oc1ccccc1 (relative stereo) [Table I: H; C2 H5 (trans); OPh; COCH3] | 4.3
CC[C@H]1C(=O)N(C(=O)c2ccccc2)[C@H]1OC(C)=O (relative stereo) [Table I: H; C2 H5 (cis); OCOCH3; COPh] | 0.14

Same assay, conditions: Table IV, (per mole per second)

kobs/I, second order rate constant of inactivation of the enzyme [M⁻¹ s⁻¹] | SMILES
4324 | CCCC1(CCC)C(=O)N(C(=O)NC(C)c2ccccc2)C1Oc1ccc(C(=O)O)cc1 (single isomer, unassigned) [Table IV: C3 H7; C3 H7; O-(4-COOHPh); drawing 47 (higher Rf isomer)]

Same assay, conditions: pH 7.5, Table I; read-out: kobs/I, second order rate constant of inactivation of the enzyme

kinact/KI [M⁻¹ s⁻¹] | SMILES
796 | CCOC(=O)N1C(=O)[C@H](CC)[C@@H]1OCC(=O)O (relative stereo)
512 | CCOC(=O)N1C(=O)[C@H](CC)[C@H]1OCC(=O)O (relative stereo)

Same assay, conditions: pH 7.5, Table II, (per mole per second); read-out: kobs/I, second order rate constant of inactivation of the enzyme

kinact/KI [M⁻¹ s⁻¹] | SMILES
4200 | CCC1(CC)C(=O)N(C(=O)NCCCCC(O)c2ccccc2)C1Oc1ccc(C(=O)O)cc1 (centres unmarked)
2540 | CCC1(CC)C(=O)N(C(=O)NCc2ccccc2)C1Oc1ccc(CC(N)C(=O)O)cc1 (centres unmarked) [Table II: C2 H5; C2 H5; drawing 36; CH2 Ph]
37000 | CCC1(CC)C(=O)N(C(=O)NCc2ccc(-c3ccccc3)cc2)C1Oc1ccc(C(=O)O)cc1 (centres unmarked)
54000 | CCCC1(CC)C(=O)N(C(=O)NC(CC)c2ccccc2)C1Oc1ccc(CC(=O)O)cc1 (centres unmarked)
36200 | CCC1(CC)C(=O)N(C(=O)NCc2ccc3cc4ccccc4cc3c2)C1Oc1ccc(C(=O)O)cc1 (centres unmarked)
5080 | CCC1(CC)C(=O)N(C(=O)NCc2ccc([N+](=O)[O-])cc2)C1Oc1ccc(C(=O)O)cc1 (centres unmarked)
1900 | O=C(O)c1ccc(OC2N(C(=O)NCc3ccccc3)C(=O)C23CCCC3)cc1 (centres unmarked)
78800 | CCC(NC(=O)N1C(=O)C(C)(CC)C1Oc1ccc(C(=O)O)cc1)c1ccsc1 (centres unmarked)
55000 | CCCC1(CC)C(=O)N(C(=O)NCc2cccc(C(F)(F)F)c2)C1Oc1ccc(C(=O)O)cc1 (centres unmarked)
4540 | CCC1(CC)C(=O)N(C(=O)NCCCc2ccccc2)C1Oc1ccc(C(=O)O)cc1 (centres unmarked)
15000 | CCC1(C)C(=O)N(C(=O)NC(C)c2ccccc2)C1Oc1ccc(C(=O)O)cc1 (centres unmarked)
3420 | CCC1(CC)C(=O)N(C(=O)NCc2ccc(Cl)cc2)C1Oc1ccc(C(=O)O)cc1 (centres unmarked)
2810 | CCC1(CC)C(=O)N(C(=O)NCc2ccc(C(=O)O)cc2)C1Oc1ccc(C(C)=O)cc1 (centres unmarked)
900 | CCC1C(=O)N(C(=O)NCc2ccccc2)C1c1ccc(C(=O)O)cc1 (centres unmarked) [Table II: C2 H5; H; Ph-4-COOH; CH2 Ph]
3280 | CCCC1(CC)C(=O)N(C(=O)NCc2ccccc2)C1Oc1ccc(C(=O)O)cc1 (centres unmarked)
12000 | CCC1(CC)C(=O)N(C(=O)NCc2ccc(Oc3ccccc3)cc2)C1Oc1ccc(C(=O)O)cc1 (centres unmarked)
1970 | C=CCC1(CC)C(=O)N(C(=O)NCc2ccccc2)C1Oc1ccc(C(=O)O)cc1 (centres unmarked)
2570 | CCC1(CC)C(=O)N(C(=O)NCc2ccccc2)C1Oc1ccc(NC(=O)CCC(=O)O)cc1 (centres unmarked)
3450 | CCC1(CC)C(=O)N(C(=O)NCCCCOc2ccccc2)C1Oc1ccc(C(=O)O)cc1 (centres unmarked)
87 | CCC1(Cc2ccccc2)C(=O)N(C(=O)NCc2ccccc2)C1Oc1ccc(C(=O)O)cc1 (centres unmarked)
2960 | CCC1(CC)C(=O)N(C(=O)NCc2ccccc2)C1Oc1ccccc1CO (centres unmarked)

Same assay, conditions: pH 7.5, Table III, (per mole per second); read-out: kobs/I, second order rate constant of inactivation of the enzyme

kinact/KI [M⁻¹ s⁻¹] | SMILES
9250 | CCC1(CC)C(=O)N(C(=O)NCc2ccc(C)cc2)C1Oc1ccc(C(=O)O)c(O)c1 (centres unmarked)
2140 | CCC1(CC)C(=O)N(C(=O)NCc2ccc(-c3ccccc3)cc2)C1n1cncn1 (centres unmarked) [Table III: 1-triazolyl; CH2 Ph-4-Ph]
18800 | CCC1(CC)C(=O)N(C(=O)NCc2ccc(C(C)C)cc2)C1Oc1ccc(C(=O)O)cc1 (centres unmarked) [Table III: O-(4-COOHPh); CH2 Ph(4-i-Pr)]
351 | CCC1(CC)C(=O)N(C(=O)NCc2ccccc2)C1n1c(=O)cc[nH]c1=O (centres unmarked) [Table III: C00042; CH2 Ph]
13100 | CCC1(CC)C(=O)N(C(=O)NCc2ccc(OC)c(C)c2)C1Oc1ccc(C(=O)O)cc1 (centres unmarked)
3350 | CCC1(CC)C(=O)N(C(=O)NCc2ccc(S(C)(=O)=O)cc2)C1Oc1ccc(C(=O)O)cc1 (centres unmarked)
17600 | CCC1(CC)C(=O)N(C(=O)NCc2ccc(C)c(C)c2)C1Oc1ccc(C(O)C(=O)O)cc1 (centres unmarked)
461 | CCC1(CC)C(=O)N(C(=O)NCc2ccc(-c3ccccc3)cc2)C1n1ccnc1 (centres unmarked) [Table III: 1-imidazole; CH2 Ph-4-Ph]
8030 | CCC1(CC)C(=O)N(C(=O)NCc2ccc(Cc3ccccc3)cc2)C1Oc1ccc(C(=O)O)cc1 (centres unmarked)
28900 | CCC1(CC)C(=O)N(C(=O)NCc2ccc(-c3ccccc3)cc2)C1Oc1ccc(CC(=O)O)cc1 (centres unmarked)
5920 | CCC1(CC)C(=O)N(C(=O)NCc2ccc(C(C)=O)cc2)C1Oc1ccc(C(=O)O)cc1 (centres unmarked) [Table III: O-(4-COOHPh); CH2 Ph(4-COMe)]

Same assay, conditions: pH 7.5, Table V, (per mole per second); read-out: kobs/I, second order rate constant of inactivation of the enzyme

kinact/KI [M⁻¹ s⁻¹] | SMILES
227000 | CCC[C@@H](NC(=O)N1C(=O)C(CC)(CC)[C@@H]1Oc1ccc(CC(=O)O)cc1)c1ccccc1 [Table V: 4-CH2 COOH; nPr; H]
92000 | CC[C@@H](NC(=O)N1C(=O)C(CC)(CC)[C@@H]1Oc1ccc(C(=O)O)cc1)c1ccccc1 [Table V: 4-COOH; Et; H]

Same assay, conditions: pH 7.5, Table VI, (per mole per second); read-out: kobs/I, second order rate constant of inactivation of the enzyme

kinact/KI [M⁻¹ s⁻¹] | SMILES
867000 | CCC[C@@H](NC(=O)N1C(=O)C(CC)(CC)[C@@H]1Oc1ccc(CC(=O)O)cc1)c1ccc2c(c1)OCO2 [(4S)-3,3-diethyl-1-[(R)-α-n-propyl-(3,4-methylenedioxy)-benzylaminocarbonyl]-4[(4-carboxymethyl)-phenoxy]azetidin-2-one]
4740 | CCC1(CC)C(=O)N(C(=O)N[C@H](c2ccccc2)C(C)C)[C@H]1Oc1ccc(C(=O)O)cc1 [Table VI: 4-COOH; iPr(S); H]
25000 | CC[C@@H](NC(=O)N1C(=O)C(CC)(CC)[C@@H]1Oc1cc(C)c(C(=O)O)c(C)c1)c1ccccc1 [Table VI: 3,5-Me2-4-COOH; Et; H]
10700 | CCC1(CC)C(=O)N(C(=O)N[C@H](C)c2ccc(C)cc2)[C@H]1Oc1ccc(C(=O)O)cc1 [Table VI: 4-COOH; Me; 4-Me]
621000 | CCC[C@@H](NC(=O)N1C(=O)C(CC)(CC)[C@@H]1Oc1ccc(C(=O)O)c(Cl)c1)c1ccc(C)cc1 [Table VI: 3-Cl,4-COOH; nPr; 4-Me, (4S)-3,3-Diethyl-1-[(R)-α-n-propyl-(4-methyl)benzylaminocarbonyl]-4-[(4-carboxy-3-chloro)phenoxy]-azetidin-2-one]
11000 | CCC1(CC)C(=O)N(C(=O)N[C@@H](COC)c2ccccc2)[C@H]1Oc1ccc(CC(=O)O)cc1 [Table VI: 4-CH2 COOH; CH2 OMe(R); H]
637000 | CCC[C@@H](NC(=O)N1C(=O)C(CC)(CC)[C@@H]1Oc1ccc(CC(=O)O)c(F)c1)c1ccc(C)cc1 [Table VI: 3-F,4-CH2 COOH; nPr; 4-Me, (4S)-3,3-Diethyl-1-[(R)-α-n-propyl-(4-methyl)benzylaminocarbonyl]-4-[(4-carboxymethyl-3-fluoro)phenoxy]azetidin-2-one]
67800 | CCC1(CC)C(=O)N(C(=O)N[C@H](c2ccccc2)c2ccc(-c3ccccc3)cc2)[C@H]1Oc1ccc(C(=O)O)cc1 [Table VI: 4-COOH; Ph; 4-Ph]
126000 | CC[C@@H](NC(=O)N1C(=O)C(CC)(CC)[C@@H]1Oc1ccc(CC(=O)O)cc1)c1ccccc1 [Table VI: 4-CH2 COOH; Et; H, (4S)-3,3-diethyl-1-[(R)-α-ethylbenzyl-aminocarbonyl]-4-[(4-carboxymethyl)phenoxy]azetidin-2-one]
74000 | CCC1(CC)C(=O)N(C(=O)N[C@H](C)c2ccc(-c3ccccc3)cc2)[C@H]1Oc1ccc(C(=O)O)cc1 [Table VI: 4-COOH; Me; 4-Ph]

Same assay, conditions: pH 7.5, read-out: kobs/I, second order rate constant of inactivation of the enzyme

SMILES | kinact/KI [M⁻¹ s⁻¹]
CC[C@H]1C(=O)N(S(=O)(=O)c2ccc(C)cc2)[C@H]1C(=O)OCc1ccc(C(=O)O)cc1 (relative stereo) | 299
CC[C@H]1C(=O)N(C(C)=O)[C@@H]1OC(=O)c1ccccc1 (relative stereo) [Table I: H; C2 H5 (trans); OCOPh; COCH3] | 81000
CC[C@H]1C(=O)N(S(=O)(=O)c2ccc(C)cc2)[C@H]1C(=O)N1CCCC1 (relative stereo) | 541
CC[C@H]1C(=O)N(C(C)=O)[C@H]1OC(=O)c1ccccc1 (relative stereo) [Table I: H; C2 H5 (cis); OCOPh; COCH3] | 28500
CCOC(=O)[C@H]1[C@@H](CC)C(=O)N1S(=O)(=O)c1ccc([N+](=O)[O-])cc1 (relative stereo) [4-Carboethoxy-3-ethyl-1-(p-nitrobenzenesulfonyl)-azetidin-2-one] | 3920
CC[C@H]1C(=O)N(S(=O)(=O)c2ccc(C)cc2)[C@H]1C(=O)N(C)CC(=O)O (relative stereo) | 165
CCO[C@@H]1[C@@H](CC)C(=O)N1C(C)=O (relative stereo) [Table I: H; C2 H5 (trans); OC2 H5; COCH3] | 1670
CC[C@H]1C(=O)N(C(C)=O)[C@@H]1Oc1ccccc1 (relative stereo) [Table I: H; C2 H5 (trans); OPh; COCH3] | 5270
